Source: article PMC13586308, “Cell type–selective targeting by heterobifunctional protein binders via in-cell enrichment” (Nature Communications, 2026)
Like-named read-outs stand apart in the source and are kept apart here.

Legend:
FKBP12 [1] = target: T1, FKBP12 (Homo sapiens, UniProt P62942); assay: NanoBRET FKBP12 in intact HEK293 cells; format: cell-based
BRD4 = target: T2, BRD4 (Homo sapiens, UniProt O60885); assay: NanoBRET BRD4, transient BRD4-NanoLuc in HEK293T cells; format: cell-based; details: intact HEK293 cells
T2 construct: full-length BRD4 fused to NanoLuc at N terminus; expressed in transfected cells; host or cells: HEK293T
Procedure: The NanoBRET assay was performed as described previously[26],[39]. To study BRD4 engagement, we employed two models: cells stably expressing BRD4-NanoLuc and cells with transient BRD4-NanoLuc expression. For stable cell lines, the coding sequence of human BRD4 (Isoform B) was fused in-frame to NanoLuc luciferase under the control of the human ubiquitin C (UbC) promoter, with left and right homology arms targeting the AAVS1 locus in intron 1 of the PPP1R12C gene to facilitate genomic integration. PC3 prostate cancer cells were transfected with this construct and vectors expressing Cas9 and an sgRNA targeting the AAVS1 locus using Lipofectamine 3000 (Invitrogen). Successful integrands were selected with blasticidin. Expression of the fusion protein was confirmed by western blot. For transient experiments, full-length BRD4 fused to NanoLuc at N terminus, was cloned into an expression plasmid and transfected into HEK293T cells using FuGENE HD (Promega, E2312), with protein expression allowed for 20 h. Serially diluted inhibitors and BRD Tracer-02 (Promega, TracerDB ID: T000022) at the Tracer KD concentration (from TracerDB)[40] were dispensed into white 384-well plates (Greiner 781207) using an ECHO 550 acoustic dispenser (Labcyte). The cells were trypsinized, resuspended in Opti-MEM without phenol red (Life Technologies), and seeded at 2 × 10^5 cells/mL. After equilibration for 2 h at 37 °C/5% CO₂ following compound treatment, the NanoBRET® NanoGlo Substrate + Extracellular NanoLuc® Inhibitor (Promega, N2162) was added according to the manufacturer’s protocol, and filtered luminescence was measured on a PHERAstar plate reader (BMG Labtech) using a donor (450 nm BP) and acceptor (610 nm LP) filter pair. Competitive displacement data were analyzed using GraphPad Prism 9 with a normalized 3-parameter curve fit: Y = 100/(1 + 10^(X − log IC₅₀)). For BRET measurements after FKBP12 knockdown in stably expressing BRD4 Nano-Luc reporter cell line, 10 nL/per well of the FKBP12 PROTAC was pipetted to each well using Labcyte to achieve the final concentration of 200 nM and the plated cells were incubated over-night at 37 °C and 5% CO2. BRET measurements were performed as outlined above.

BRD2BD1 = target: T3, BRD2BD1 (Homo sapiens, UniProt P25440); assay: competitive FP assay, BRD2 BD1 -/+ FKBP12; format: binding
T3 construct: to the isolated BD1 and BD2 domains of BRD2, BRD3 and BRD4

BRD2BD2 = BRD2BD2 (Homo sapiens, UniProt P25440); assay: competitive FP assay, BRD2 BD2 -/+ FKBP12; format: binding
[2] = target: T4, His-BRD4^BD1 + eGFP-FKBP12 (Homo sapiens, UniProt O60885+P62942); assay: HTRF ternary complex formation BRD4 BD1 + EGFP-FKBP12; format: binding; details: eGFP-FKBP12 5 µM, His-BRD4^BD1 100 nM; read-out: HTRF BRD4^BD1 + GFP-FKBP12 Kd
T4 construct: the His6-tag of the respective BD1 or BD2 domain of BRD4 and EGFP-labeled FKBP12

BRD4^BD2 = target: T5, BRD4^BD2 (Homo sapiens, UniProt O60885); assay: competitive fluorescence polarization assay, BRD4 BD2 -/+ presenter protein; format: binding
T5 construct: to the isolated BD1 and BD2 domains of BRD2, BRD3 and BRD4

FKBP12 [3] = target: T1, FKBP12; assay: competitive fluorescence polarization assay, binding to FKBP12; details: competitive FP assay
BRD4 43-463 = BRD4 43-463 (Homo sapiens, UniProt O60885); assay: competitive FP assay, BRD4 tandem bromo domain construct; format: binding
BRD4 43-463 Y97A [4] = target: BRD4 43-463 Y97A (Homo sapiens, UniProt O60885, Y97A); assay: competitive FP assay, BRD4 tandem construct Y97A; format: binding
BRD4 43-463 Y97A [5] = assay: competitive FP assay, BRD4 tandem construct Y97A; format: binding
BRD4^BD1 = target: T6, BRD4^BD1 (Homo sapiens, UniProt O60885); assay: competitive fluorescence polarization assay, BRD4 BD1 -/+ presenter protein; format: binding
T6 construct: to the isolated BD1 and BD2 domains of BRD2, BRD3 and BRD4

BRD3BD2 = target: T7, BRD3BD2 (Homo sapiens, UniProt Q15059); assay: competitive FP assay, BRD3 BD2 -/+ FKBP12; format: binding
T7 construct: to the isolated BD1 and BD2 domains of BRD2, BRD3 and BRD4

[6] = target: T8, His-BRD4^BD2 + eGFP-FKBP12 (Homo sapiens, UniProt O60885+P62942); assay: HTRF ternary complex formation BRD4 BD2 + EGFP-FKBP12; format: binding; details: eGFP-FKBP12 5 µM, His-BRD4^BD2 100 nM; read-out: HTRF BRD4^BD2 + GFP-FKBP12 Kd
T8 construct: the His6-tag of the respective BD1 or BD2 domain of BRD4 and EGFP-labeled FKBP12

BRD3BD1 = target: T9, BRD3BD1 (Homo sapiens, UniProt Q15059); assay: competitive FP assay, BRD3 BD1 -/+ FKBP12; format: binding
T9 construct: to the isolated BD1 and BD2 domains of BRD2, BRD3 and BRD4

BRD4 43-463 Y390A [7] = target: BRD4 43-463 Y390A (Homo sapiens, UniProt O60885, Y390A); assay: competitive FP assay, BRD4 tandem construct Y390A; format: binding
BRD4 43-463 Y390A [8] = assay: competitive FP assay, BRD4 tandem construct Y390A; format: binding
MV4-11 cells = assay: CellTiter-Glo cell viability, MV4-11; format: cell-based, human; details: Homo sapiens, MV4-11, 120 h; five days, without FKBP12 PROTAC; read-out: Cell toxicity (MV4-11) - FKBP12 PROTAC IC50
[9] = ratio of binding in absence or presence of FKBP12

Sequence of BRD2BD2 (P25440 344-453 limits assumed): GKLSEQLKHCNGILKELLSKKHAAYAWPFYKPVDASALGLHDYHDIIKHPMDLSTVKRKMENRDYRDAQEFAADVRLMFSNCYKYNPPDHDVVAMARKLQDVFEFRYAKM
T3 sequence (P25440 74-180 limits assumed): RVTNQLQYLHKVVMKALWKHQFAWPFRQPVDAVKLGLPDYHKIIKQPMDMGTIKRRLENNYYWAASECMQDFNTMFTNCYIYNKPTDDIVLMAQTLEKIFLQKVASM
T9 sequence (Q15059 34-140 limits assumed): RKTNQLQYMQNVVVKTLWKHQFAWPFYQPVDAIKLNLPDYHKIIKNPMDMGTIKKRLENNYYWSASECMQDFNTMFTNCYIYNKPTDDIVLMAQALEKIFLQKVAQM
T7 sequence (Q15059 306-415 limits assumed): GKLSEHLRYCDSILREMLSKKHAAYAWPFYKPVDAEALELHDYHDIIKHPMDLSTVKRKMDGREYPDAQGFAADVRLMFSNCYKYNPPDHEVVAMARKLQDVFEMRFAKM

## Cc1sc2c(c1C)C(c1ccc(Cl)cc1)=NC(CC(=O)NCCOCCn1cc(COCC3CN(Cc4ccccn4)C(=O)C4CCCC3N4S(=O)(=O)c3cc(Cl)cc(Cl)c3)nn1)c1nnc(C)n1-2 (centres unmarked) [a1d]
FKBP12 [1]
  IC50: 14 nM
BRD4
  IC50: 820 nM
BRD2BD1
  α BRD2BD1: 7.2
BRD2BD1; 15 µM FKBP12, read-out: Binding to BRD2BD1 + FKBP12 Kd
  Kd: 36 ± 9 nM
BRD2BD1; absence of FKBP12, read-out: Binding to BRD2BD1 - FKBP12 Kd
  Kd: 260 ± 60 nM
BRD2BD2
  α BRD2BD2: 2.5
BRD2BD2; 15 µM FKBP12, read-out: Binding to BRD2BD2 + FKBP12 Kd
  Kd: 75 ± 20 nM
BRD2BD2; absence of FKBP12, read-out: Binding to BRD2BD2 - FKBP12 Kd
  Kd: 190 ± 50 nM
[2]
  Kd: 9 ± 3 nM
BRD4^BD2; 15 µM FKBP51FK1, read-out: Binding to BRD4BD2 + FKBP51FK1 Kd
  Kd: 470 ± 80 nM
BRD4^BD2; absence of FKBP12, 2 nM JQ1-FL tracer, read-out: Binding to BRD4^BD2 - FKBP12 Kd
  Kd: 320 ± 50 nM
BRD4^BD2; absence of FKBP51FK1 (SI Table 3), read-out: Binding to BRD4BD2 - FKBP51FK1 Kd
  Kd: 180 ± 30 nM
BRD4^BD2; presence of 15 µM FKBP12, read-out: Binding to BRD4^BD2 + FKBP12 Kd (converted)
  Kd: 70 nM
BRD4^BD2; [9]
  α BRD4^BD2 (binding cooperativity factor): 4.5
FKBP12 [3]
  Kd: 1 nM
BRD4 43-463
  α BRD4 43-463: 6.7
BRD4 43-463; Binding to BRD4 43-463 + FKBP12 Kd, 15 µM FKBP12
  Kd: 26 ± 3 nM
BRD4 43-463; Binding to BRD4 43-463 - FKBP12 Kd, absence of FKBP12
  Kd: 175 ± 17 nM
BRD4 43-463 Y97A [4]; Binding to BRD4 43-463 Y97A + FKBP12 Kd, 15 µM FKBP12
  Kd: 59 ± 5 nM
BRD4 43-463 Y97A [4]; Binding to BRD4 43-463 Y97A - FKBP12 Kd, absence of FKBP12
  Kd: 130 ± 16 nM
BRD4 43-463 Y97A [5]
  α BRD4 43-463 Y97A: 2.2
BRD4^BD1; 15 µM FKBP51FK1, read-out: Binding to BRD4BD1 + FKBP51FK1 Kd
  Kd: 500 ± 90 nM
BRD4^BD1; absence of FKBP12, 2 nM JQ1-FL tracer, read-out: Binding to BRD4^BD1 - FKBP12 Kd
  Kd: 450 ± 70 nM
BRD4^BD1; absence of FKBP51FK1 (SI Table 3), read-out: Binding to BRD4BD1 - FKBP51FK1 Kd
  Kd: 300 ± 50 nM
BRD4^BD1; presence of 15 µM FKBP12, read-out: Binding to BRD4^BD1 + FKBP12 Kd (converted)
  Kd: 25 nM
BRD4^BD1; [9]
  α BRD4^BD1 (binding cooperativity factor): 18
BRD4^BD1; values quoted in rebuttal letter (earlier version of Tab. 1), read-out: binding to BRD4BD1 + FKBP12
  Kd: 26 nM
BRD3BD2
  α BRD3BD2: 1.0
BRD3BD2; 15 µM FKBP12, read-out: Binding to BRD3BD2 + FKBP12 Kd
  Kd: 140 ± 30 nM
BRD3BD2; absence of FKBP12, read-out: Binding to BRD3BD2 - FKBP12 Kd
  Kd: 150 ± 30 nM
[6]
  Kd: 26 ± 6 nM
BRD3BD1
  α BRD3BD1: 7.4
BRD3BD1; 15 µM FKBP12, read-out: Binding to BRD3BD1 + FKBP12 Kd
  Kd: 23 ± 5 nM
BRD3BD1; absence of FKBP12, read-out: Binding to BRD3BD1 - FKBP12 Kd
  Kd: 170 ± 27 nM
BRD4 43-463 Y390A [7]; Binding to BRD4 43-463 Y390A + FKBP12 Kd, 15 µM FKBP12
  Kd: 18 ± 2 nM
BRD4 43-463 Y390A [7]; absence of FKBP12
  Kd: 183 ± 13 nM
BRD4 43-463 Y390A [8]
  α BRD4 43-463 Y390A: 10
MV4-11 cells
  IC50: 1.7 nM
